Reference: patent publication US20130210846A1, “USE OF NOVEL PAN-CDK INHIBITORS FOR TREATING TUMORS” (BAYER INTELLECTUAL PROPERTY GMBH, priority 2010, published 2013)
pIC50: −log10 of the molar value.

Columns and labels:
HT29 = assay: Proliferation assay HT29; type: cell-based; conditions: Homo sapiens, HT-29, 96 h; HT29, colon/rectum carcinoma; 4 days, crystal violet
Procedure: (§1) Cultivated human tumor cells (originally obtained from ATCC, HeLa-MaTu and HeLa-MaTu-ADR, originally obtained from Epo GmbH, Berlin, Germany) were plated at a density of 1000 to 5000 cells/measuring point, depending on the growth rate of the cell line, in a 96-well multititer plate in 200 μl of growth medium (DMEM/HAMS F12, 2 mM L-glutamine, 10% fetal calf serum). After 24 hours the cells of one plate (zero-point plate) were stained with crystal violet (see below), whereas the medium of the other plates was replaced with fresh culture medium (200 μl), to which the test substances had been added at various concentrations (0 μM, and in the range 0.01-30 μM; the final concentration of the solvent dimethyl sulfoxide was 0.5%). The cells were incubated for 4 days in the presence of the test substances. Cellular proliferation was determined by staining the cells with crystal violet: the cells were fixed by adding 20 μl/measuring point of an 11% glutaraldehyde solution for 15 min at room temperature. After washing the fixed cells with water three times, the plates were dried at room temperature. The cells were stained by adding 100 μl/measuring point of a 0.1% crystal violet solution (pH adjusted to pH3 by adding acetic acid). After washing the stained cells with water three times, the plates were dried at room temperature. The dye was dissolved by adding 100 μl/measuring point of a 10% acetic acid solution. The extinction was determined photometrically at a wavelength of 595 nm. The percentage change in cell growth was calculated by standardization of the measured values to the extinction values of the zero-point plate (=0%) and the extinction of the untreated (0 μM) cells (=100%). The measured data were standardized to 0% inhibition (cell proliferation without inhibitor) and 100% inhibition (zero-point plate). The IC50 values were determined by means of a 4-parameter fit using the company's own software.
(§2) The substances were examined in the following cell lines which, in an exemplary manner, represent the stated indications: […]

MIA PaCa-2 = assay: Proliferation assay MIA PaCa-2; type: cell-based; conditions: Homo sapiens, 96 h; MIA PaCa-2, pancreas carcinoma; 4 days, crystal violet
Procedure: as §1, §2

MDA-MB 453 = assay: Proliferation assay MDA-MB 453; type: cell-based; conditions: Homo sapiens, 96 h; MDA-MB 453, estrogen receptor-negative mamma carcinoma; 4 days, crystal violet
Procedure: as §1, §2

NCI-ADR-Res = assay: Proliferation assay NCI-ADR-Res; type: cell-based; conditions: Homo sapiens, 96 h, ovarial carcinoma, 4 days, crystal violet
Procedure: as §1, §2

H1975 = assay: Proliferation assay H1975; type: cell-based; conditions: Homo sapiens, NCI-H1975, 96 h; H1975, non-small-cell bronchial carcinoma; 4 days, crystal violet
Procedure: as §1, §2

CDK2/CycE = target: T1, CDK2/CycE (Homo sapiens, UniProt P24941); assay: CDK2/CycE kinase assay (Assay 2); type: biochemical; conditions: 0.5 μM ATP, histon IIIS, 10 min 22° C.; read-out: CDK2/CycE (Assay 2) Concentration for half-maximal inhibition of the enzyme activity, IC50
T1 construct: purchased ProQinase GmbH, Freiburg, Germany; host or cells: baculovirus-infected insect cells (Sf9)
Procedure: Recombinant CDK2 and CycE-GST fusion proteins, purified from baculovirus-infected insect cells (Sf9), were purchased from ProQinase GmbH, Freiburg, Germany. Histon HIS, used as kinase substrate, was purchased from Sigma.
The reaction was stopped by adding EDTA solution (250 mM, pH 8.0, 15 μl/measuring point).
From each reaction mixture, 15 μl was applied to P30 filter strips (from Wallac), and unincorporated ^33P-ATP was removed by washing the filter strips three times, for 10 min each time, in 0.5% phosphoric acid. After drying the filter strips for 1 hour at 70° C., the filter strips were covered with scintillator strips (MeltiLex™ A, from Wallac) and stoved for 1 hour at 90° C. The amount of incorporated ^33P (substrate phosphorylation) was determined by scintillation measurement in a gamma-radiation measuring instrument (Wallac). […] The IC50 values were determined by means of a 4-parameter fit using the company's own software.

SK-BR-3 = assay: Proliferation assay SK-BR-3; type: cell-based; conditions: Homo sapiens, 96 h; SK-BR-3, estrogen receptor-negative mamma carcinoma; 4 days, crystal violet
Procedure: as §1, §2

SW480 = assay: Proliferation assay SW480; type: cell-based; conditions: Homo sapiens, 96 h; SW480, colon/rectum carcinoma; 4 days, crystal violet
Procedure: as §1, §2

786-O = assay: Proliferation assay 786-O; type: cell-based; conditions: Homo sapiens, 786-0, 96 h, kidney carcinoma, 4 days, crystal violet
Procedure: as §1, §2

A431 = assay: Proliferation assay A431; type: cell-based; conditions: Homo sapiens, A-431, 96 h; A431, skin: epidermis; 4 days, crystal violet
Procedure: as §1, §2

Caki2 = assay: Proliferation assay Caki2; type: cell-based; conditions: Homo sapiens, CAKI-2, 96 h; Caki2, kidney carcinoma; 4 days, crystal violet
Procedure: as §1, §2

Caco-2 = assay: Proliferation assay Caco-2; type: cell-based, human; conditions: Caco-2, colon/rectum carcinoma, 4 days, crystal violet
Method in brief: (§3)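 IC50 values come from a 4-parameter fit of crystal violet proliferation data, with the zero-point plate set as 100% inhibition. Compound exposure lasted 4 days at up to 30 μM in 10% FCS medium.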

MCF7 = assay: Proliferation assay MCF7; type: cell-based, human; conditions: MCF7, estrogen receptor-positive mamma carcinoma, 4 days, crystal violet
Method in brief: as §3

pIC50 (HT29) | pIC50 (MIA PaCa-2) | pIC50 (MDA-MB 453) | pIC50 (H1975) | pIC50 (CDK2/CycE) | pIC50 (SK-BR-3) | pIC50 (SW480) | pIC50 (786-O) | pIC50 (A431) | pIC50 (Caco-2; Homo sapiens, Caco-2, 96 h) | pIC50 (MCF7; Homo sapiens, MCF7, 96 h) | pIC50 (Caco-2) | pIC50 (MCF7) | Compound | pIC50 (NCI-ADR-Res) | pIC50 (Caki2)
7.55 | 7.72 | 7.80 | 7.85 | 8.30 | 7.68 | 7.72 | 7.66 | 7.77 |  |  |  |  | C[C@@H](O)[C@@H](C)Oc1nc(Nc2ccc(S(C)(=N)=O)cc2)ncc1C(F)(F)F (single isomer, unassigned) [Example 2-SI-2] | 7.54 | 7.62
7.92 | 7.85 | 7.96 | 7.80 | 8.22 | 7.48 | 7.66 | 7.52 | 7.70 | 7.46 | 7.47 |  |  | C[C@@H](O)[C@@H](C)Nc1nc(Nc2ccc(S(=N)(=O)C3CC3)cc2)ncc1C(F)(F)F (mixture of isomers) [Example 4-SI-1, (RS)—S-Cyclopropyl-S-(4-{[4-{[(1R,2R)-2-hydroxy-1-methylpropyl]amino}-5-(trifluoromethyl)-pyrimidin-2-yl]amino}phenyl)sulfoximide] | 7.43 | > 8.00
 |  |  |  |  |  |  |  |  |  |  | 7.62 | 7.96 | C[C@@H](O)[C@@H](C)Oc1nc(Nc2ccc(S(C)(=N)=O)cc2)ncc1C(F)(F)F (mixture of isomers) [Example 2-SI-2, (RS)—S-(4-{[4-{[(1R,2R)-2-Hydroxy-1-methylpropyl]oxy}-5-(trifluoromethyl)pyrimidin-2-yl]-amino}phenyl)-S-methylsulfoximide] |  | 
